Data on 20 compounds can be found in patent publication US20220289794A1, “SYNTHETIC ANTIMICROBIAL PEPTIDES” (priority 2019, published 2022).

Data set [1] relates to Pseudomonas aeruginosa (ATCC 27883). Conditions: ATCC 27883.
The nature of a further data set: in vitro. Conditions: human, fresh human red blood cells (washed), pH 7.4.
Data set [2] concerns Escherichia coli (ATCC 25922). Conditions: ATCC 25922.

Converted amounts (≈) assume the structure as drawn. Non-standard residues stand in square brackets, D forms with d. Residues, ends and D or L forms follow the SMILES beside them. dDip = N[C@@H](C(=O)O)C(c1ccccc1)c1ccccc1; Dip = N[C@H](C(=O)O)C(c1ccccc1)c1ccccc1; 2Nal = N[C@@H](Cc1ccc2ccccc2c1)C(=O)O; d2Nal = N[C@H](Cc1ccc2ccccc2c1)C(=O)O

With `N=C(N)NCCC[C@@H]1NC(=O)[C@@H](CCCNC(=N)N)NC(=O)[C@H](CCCNC(=N)N)NC(=O)[C@@H](CCCNC(=N)N)NC(=O)[C@@H](C(c2ccccc2)c2ccccc2)NC(=O)[C@@H](C(c2ccccc2)c2ccccc2)NC(=O)[C@@H](C(c2ccccc2)c2ccccc2)NC1=O` [IFX-068, c[arg-Arg-arg-Arg-dip-dip-dip]] (cyclo([dR]R[dR]R[dDip][dDip][dDip])), in data set [1], the “MIC P. aeruginosa ATCC 27883” value turned out to be 12.5 µg/mL (≈ 9.66 µM). The HC50 at 0.5 h in “in vitro” is 280 µg/mL.
For the compound `N=C(N)NCCC[C@@H]1NC(=O)[C@@H](CCCNC(=N)N)NC(=O)[C@H](CCCNC(=N)N)NC(=O)[C@@H](CCCNC(=N)N)NC(=O)[C@@H](C(c2ccccc2)c2ccccc2)NC(=O)[C@H](C(c2ccccc2)c2ccccc2)NC(=O)[C@@H](C(c2ccccc2)c2ccccc2)NC1=O` [IFX-069, c[arg-Arg-arg-Arg-dip-Dip-dip]] (cyclo([dR]R[dR]R[dDip][Dip][dDip])), in data set [1], the “MIC P. aeruginosa ATCC 27883” value was determined as 6.2 µg/mL (≈ 4.79 µM). Also, in the data set “in vitro”, the HC50 at 0.5 h was 200 µg/mL.
Take `N=C(N)NCCC[C@@H]1NC(=O)[C@H](C(c2ccccc2)c2ccccc2)NC(=O)[C@@H](C(c2ccccc2)c2ccccc2)NC(=O)[C@H](C(c2ccccc2)c2ccccc2)NC(=O)[C@@H](CCCNC(=N)N)NC(=O)[C@H](CCCNC(=N)N)NC(=O)[C@@H](CCCNC(=N)N)NC1=O` [IFX-071, c[Arg-arg-Arg-arg-Dip-dip-Dip]] (cyclo(R[dR]R[dR][Dip][dDip][Dip])): in data set [1], the “MIC P. aeruginosa ATCC 27883” value stood at 12.5 µg/mL (≈ 9.66 µM). The same compound came in with an HC50 at 0.5 h in “in vitro” of 150 µg/mL.
On the same counts, the results for `N=C(N)NCCC[C@@H]1NC(=O)[C@H](CCCNC(=N)N)NC(=O)[C@H](CCCNC(=N)N)NC(=O)[C@@H](C(c2ccccc2)c2ccccc2)NC(=O)[C@@H](C(c2ccccc2)c2ccccc2)NC(=O)[C@@H](C(c2ccccc2)c2ccccc2)NC(=O)[C@H](CCCNC(=N)N)NC1=O` [IFX-072, c[Arg-Arg-Arg-Arg-dip-dip-dip]] (cyclo(RRRR[dDip][dDip][dDip])) are 12.5 µg/mL (≈ 9.66 µM) and 265 µg/mL.
For `N=C(N)NCCC[C@H]1NC(=O)[C@H](C(c2ccccc2)c2ccccc2)NC(=O)[C@H](C(c2ccccc2)c2ccccc2)NC(=O)[C@H](C(c2ccccc2)c2ccccc2)NC(=O)[C@@H](CCCNC(=N)N)NC(=O)[C@@H](CCCNC(=N)N)NC(=O)[C@@H](CCCNC(=N)N)NC1=O` [IFX-073, c[arg-arg-arg-arg-Dip-Dip-Dip]] (cyclo([dR][dR][dR][dR][Dip][Dip][Dip])), in data set [1], the “MIC P. aeruginosa ATCC 27883” value stood at 6.2 µg/mL (≈ 4.79 µM). In the data set “in vitro”, this compound gave an HC50 at 0.5 h of 245 µg/mL.
On the same counts, the results for `N=C(N)NCCC[C@@H]1NC(=O)[C@H](CCCNC(=N)N)NC(=O)[C@H](CCCNC(=N)N)NC(=O)[C@H](CCCNC(=N)N)NC(=O)[C@@H](Cc2ccc3ccccc3c2)NC(=O)[C@H](Cc2ccc3ccccc3c2)NC(=O)[C@H](Cc2ccc3ccccc3c2)NC1=O` [IFX-074, c[Arg-Arg-Arg-Arg-NaI-NaI-naI]] (cyclo(RRRR[2Nal][2Nal][d2Nal])) are 12.5 µg/mL (≈ 10.3 µM) and 200 µg/mL.
With `N=C(N)NCCC[C@@H]1NC(=O)[C@H](CCCNC(=N)N)NC(=O)[C@H](CCCNC(=N)N)NC(=O)[C@H](Cc2ccc3ccccc3c2)NC(=O)[C@@H](Cc2ccc3ccccc3c2)NC(=O)[C@H](Cc2ccc3ccccc3c2)NC(=O)[C@H](CCCNC(=N)N)NC1=O` [IFX-075, c[Arg-Arg-Arg-Arg-NaI-naI-NaI]] (cyclo(RRRR[2Nal][d2Nal][2Nal])), the “MIC P. aeruginosa ATCC 27883” value in data set [1] is 12.5 µg/mL (≈ 10.3 µM). In “in vitro”, this compound registered a concentration for 50% haemolysis (HC50) at 0.5 h of 100 µg/mL.
Turning to `N=C(N)NCCC[C@@H]1NC(=O)[C@H](CCCNC(=N)N)NC(=O)[C@H](Cc2ccc3ccccc3c2)NC(=O)[C@H](Cc2ccc3ccccc3c2)NC(=O)[C@@H](Cc2ccc3ccccc3c2)NC(=O)[C@H](CCCNC(=N)N)NC(=O)[C@H](CCCNC(=N)N)NC1=O` [IFX-076, c[Arg-Arg-Arg-Arg-naI-NaI-NaI]] (cyclo(RRRR[d2Nal][2Nal][2Nal])), the “MIC P. aeruginosa ATCC 27883” value in data set [1] turned out to be 12.5 µg/mL (≈ 10.3 µM). In addition, in the data set “in vitro”, the HC50 at 0.5 h worked out at 100 µg/mL.
`N=C(N)NCCC[C@@H]1NC(=O)[C@H](Cc2ccc3ccccc3c2)NC(=O)[C@H](Cc2ccc3ccccc3c2)NC(=O)[C@H](Cc2ccc3ccccc3c2)NC(=O)[C@@H](CCCNC(=N)N)NC(=O)[C@H](CCCNC(=N)N)NC(=O)[C@H](CCCNC(=N)N)NC1=O` [IFX-077, c[Arg-Arg-Arg-arg-NaI-NaI-NaI]] (cyclo(RRR[dR][2Nal][2Nal][2Nal])): the “MIC P. aeruginosa ATCC 27883” value in data set [1] turned out to be 12.5 µg/mL (≈ 10.3 µM). The same compound returned an HC50 at 0.5 h in the data set “in vitro” of 100 µg/mL.
With `N=C(N)NCCC[C@@H]1NC(=O)[C@H](Cc2ccc3ccccc3c2)NC(=O)[C@H](Cc2ccc3ccccc3c2)NC(=O)[C@H](Cc2ccc3ccccc3c2)NC(=O)[C@H](CCCNC(=N)N)NC(=O)[C@@H](CCCNC(=N)N)NC(=O)[C@H](CCCNC(=N)N)NC1=O` [IFX-078, c[Arg-Arg-arg-Arg-NaI-NaI-NaI]] (cyclo(RR[dR]R[2Nal][2Nal][2Nal])), in data set [1], the “MIC P. aeruginosa ATCC 27883” value was 12.5 µg/mL (≈ 10.3 µM). Moreover, the HC50 at 0.5 h in “in vitro” turned out to be 95 µg/mL.
`N=C(N)NCCC[C@@H]1NC(=O)[C@H](CCCNC(=N)N)NC(=O)[C@@H](CCCNC(=N)N)NC(=O)[C@H](CCCNC(=N)N)NC(=O)[C@H](Cc2ccc3ccccc3c2)NC(=O)[C@H](Cc2ccc3ccccc3c2)NC(=O)[C@H](Cc2ccc3ccccc3c2)NC1=O` [IFX-079, c[Arg-arg-Arg-Arg-NaI-NaI-NaI]] (cyclo(R[dR]RR[2Nal][2Nal][2Nal])): in data set [1], the “MIC P. aeruginosa ATCC 27883” value is 12.5 µg/mL (≈ 10.3 µM). Further, the HC50 at 0.5 h in “in vitro” is 100 µg/mL.
As for `N=C(N)NCCC[C@@H]1NC(=O)[C@H](CCCNC(=N)N)NC(=O)[C@H](CCCNC(=N)N)NC(=O)[C@@H](CCCNC(=N)N)NC(=O)[C@H](Cc2ccc3ccccc3c2)NC(=O)[C@H](Cc2ccc3ccccc3c2)NC(=O)[C@H](Cc2ccc3ccccc3c2)NC1=O` [IFX-080, c[arg-Arg-Arg-Arg-NaI-NaI-NaI]] (cyclo([dR]RRR[2Nal][2Nal][2Nal])), the “MIC P. aeruginosa ATCC 27883” value in data set [1] worked out at 12.5 µg/mL (≈ 10.3 µM). This compound yielded an HC50 at 0.5 h in “in vitro” of 200 µg/mL.
On the same counts, the results for `N=C(N)NCCC[C@H]1NC(=O)[C@@H](CCCNC(=N)N)NC(=O)[C@@H](CCCNC(=N)N)NC(=O)[C@@H](Cc2ccc3ccccc3c2)NC(=O)[C@@H](Cc2ccc3ccccc3c2)NC(=O)[C@@H](Cc2ccc3ccccc3c2)NC(=O)[C@@H](CCCNC(=N)N)NC1=O` [IFX-081, c[arg-arg-arg-arg-naI-naI-naI]] (cyclo([dR][dR][dR][dR][d2Nal][d2Nal][d2Nal])) are 50 µg/mL (≈ 41.1 µM) and 200 µg/mL.
As for `N=C(N)NCCC[C@@H]1NC(=O)[C@@H](CCCNC(=N)N)NC(=O)[C@H](CCCNC(=N)N)NC(=O)[C@@H](CCCNC(=N)N)NC(=O)[C@@H](Cc2ccc3ccccc3c2)NC(=O)[C@@H](Cc2ccc3ccccc3c2)NC(=O)[C@@H](Cc2ccc3ccccc3c2)NC1=O` [IFX-082, c[arg-Arg-arg-Arg-naI-naI-naI]] (cyclo([dR]R[dR]R[d2Nal][d2Nal][d2Nal])), in data set [1], the “MIC P. aeruginosa ATCC 27883” value was 12.5 µg/mL (≈ 10.3 µM). Also, the HC50 at 0.5 h in “in vitro” turned out to be 150 µg/mL.
For the compound `N=C(N)NCCC[C@@H]1NC(=O)[C@@H](CCCNC(=N)N)NC(=O)[C@H](CCCNC(=N)N)NC(=O)[C@@H](CCCNC(=N)N)NC(=O)[C@@H](Cc2ccc3ccccc3c2)NC(=O)[C@H](Cc2ccc3ccccc3c2)NC(=O)[C@@H](Cc2ccc3ccccc3c2)NC1=O` [IFX-083, c[arg-Arg-arg-Arg-naI-NaI-naI]] (cyclo([dR]R[dR]R[d2Nal][2Nal][d2Nal])), the “MIC P. aeruginosa ATCC 27883” value in data set [1] worked out at 12.5 µg/mL (≈ 10.3 µM). In addition, in “in vitro”, the HC50 at 0.5 h was 170 µg/mL.
`N=C(N)NCCC[C@@H]1NC(=O)[C@H](Cc2ccc3ccccc3c2)NC(=O)[C@@H](Cc2ccc3ccccc3c2)NC(=O)[C@H](Cc2ccc3ccccc3c2)NC(=O)[C@@H](CCCNC(=N)N)NC(=O)[C@H](CCCNC(=N)N)NC(=O)[C@@H](CCCNC(=N)N)NC1=O` [IFX-085, c[Arg-arg-Arg-arg-NaI-naI-NaI]] (cyclo(R[dR]R[dR][2Nal][d2Nal][2Nal])): in data set [1], the “MIC P. aeruginosa ATCC 27883” value was 12.5 µg/mL (≈ 10.3 µM). In the data set “in vitro”, this compound registered an HC50 at 0.5 h of 145 µg/mL.
Regarding `N=C(N)NCCC[C@@H]1NC(=O)[C@H](CCCNC(=N)N)NC(=O)[C@H](CCCNC(=N)N)NC(=O)[C@@H](Cc2ccc3ccccc3c2)NC(=O)[C@@H](Cc2ccc3ccccc3c2)NC(=O)[C@@H](Cc2ccc3ccccc3c2)NC(=O)[C@H](CCCNC(=N)N)NC1=O` [IFX-086, c[Arg-Arg-Arg-Arg-naI-naI-naI]] (cyclo(RRRR[d2Nal][d2Nal][d2Nal])), the “MIC P. aeruginosa ATCC 27883” value in data set [1] worked out at 12.5 µg/mL (≈ 10.3 µM). In addition, the HC50 at 0.5 h in “in vitro” was 155 µg/mL.
On to `N=C(N)NCCC[C@H]1NC(=O)[C@H](Cc2ccc3ccccc3c2)NC(=O)[C@H](Cc2ccc3ccccc3c2)NC(=O)[C@H](Cc2ccc3ccccc3c2)NC(=O)[C@@H](CCCNC(=N)N)NC(=O)[C@@H](CCCNC(=N)N)NC(=O)[C@@H](CCCNC(=N)N)NC1=O` [IFX-087, c[arg-arg-arg-arg-NaI-NaI-NaI]] (cyclo([dR][dR][dR][dR][2Nal][2Nal][2Nal])), for which, in data set [1], the “MIC P. aeruginosa ATCC 27883” value was determined as 12.5 µg/mL (≈ 10.3 µM). This compound returned an HC50 at 0.5 h in the data set “in vitro” of 145 µg/mL.
For the compound `N=C(N)NCCC[C@@H]1NC(=O)[C@H](CCCNC(=N)N)NC(=O)[C@@H](Cc2ccc3ccccc3c2)NC(=O)[C@@H](Cc2ccc3ccccc3c2)NC(=O)[C@H](Cc2c[nH]c3ccccc23)NC(=O)[C@@H](CCCNC(=N)N)NC(=O)[C@@H](CCCNC(=N)N)NC1=O` [IFX-116, c[Arg-Arg-arg-arg-Trp-naI-naI]] (cyclo(RR[dR][dR]W[d2Nal][d2Nal])), the “MIC P. aeruginosa ATCC 27883” value in data set [1] amounted to 32 µg/mL (≈ 26.5 µM). In data set [2], the “MIC E. coli ATCC 25922” value stood at 32 µg/mL (≈ 26.5 µM). In the data set “in vitro”, this compound gave an HC50 at 0.5 h of 480 µg/mL.
Turning to `N=C(N)NCCC[C@@H]1NC(=O)[C@H](CCCNC(=N)N)NC(=O)[C@@H](CCCNC(=N)N)NC(=O)[C@@H](CCCNC(=N)N)NC(=O)[C@@H](Cc2ccc3ccccc3c2)NC(=O)[C@@H](Cc2ccc3ccccc3c2)NC(=O)[C@H](Cc2c[nH]c3ccccc23)NC1=O` [IFX-117, c[arg-arg-Arg-Arg-Trp-naI-naI]] (cyclo([dR][dR]RRW[d2Nal][d2Nal])), the “MIC P. aeruginosa ATCC 27883” value in data set [1] stood at 32 µg/mL (≈ 26.5 µM). The “MIC E. coli ATCC 25922” value in data set [2] stood at 32 µg/mL (≈ 26.5 µM). The HC50 at 0.5 h in “in vitro” came out at 190 µg/mL.

In general, HC50 refers to the concentration that lyses half of the red blood cells. Lower therefore signals stronger haemolysis.
